Laboratory results from US20060089335A1, “Compositions and methods for enhancing cognitive function and synaptic plasticity” (priority 2003, published 2006).

Experiments:
[1] = system: NR2B; assay: quantitative Western blotting of hippocampal homogenate; format: in vivo, rat; settings: rat, in vivo
Method: (§1) Quantitative Western blotting. Samples of hippocampal homogenate (10 ug/sample) were resolved on polyacrylamide gels, transferred to PVDF, and probed with anti-NR1 (Chemicon), NR2A (Upstate) or NR2B (Santa Cruz Biotech), GluR1 (Chemicon), Synapsin1 (American Qualex), or PSD-95 (Upstate) antibody followed by the appropriate secondary antibody coupled to horseradish peroxidase (1:10,000, Santa Cruz Biotech) in Tris-buffered saline (pH 7.3) containing 5% dry milk and 0.1% Tween (BioRad). Visualization of immunoreactive bands was achieved by enhanced chemiluminescence (Perkin Elmer Biosciences) and captured on autoradiography film (Kodak Scientific). Standard curves, in which the amount of protein was varied systematically, were constructed to establish that we operated within the linear range of the chemiluminescence detection method. In addition, each immunoblot was exposed to autoradiography film multiple times (average 7; minimum 5) for varying duration to make sure we operated in the linear range of the film for each experiment. Digital images, produced by scanning films on a Epson 3200 Scanner (Epson) with Epson Scan Software (Epson), were quantified using GelPro Analyzer 3.1 software. The integrated optical density (IOD) of each immunoreactive band from hippocampal samples relative to baseline measured immediately above and below the band in the same lane, and normalized by the actin or neurofilament band also in the same lane. Group data (eight animals per group) are represented as the mean+/−SEM of the IOD of samples.

[2] = system: GluR1; assay: as above; format: in vivo, rat; settings: rat, in vivo, 6 mg/kg/day
Method: as §1

Compound: [Mg+2] [Mg^++]
- increase in levels of NR2B protein [1]: two-fold increase
- increase in amount of NR2B ([1]; 6 mg/kg/day): approximately 60%
- increase in amount of GluR1 [2]: approximately 60%
